Laboratory results published in patent US20240376121A1, “COMPOUNDS AND USES THEREOF” (Foghorn Therapeutics Inc., priority 2021, published 2024).

Columns and labels:
[1] = target: T1, HiBit-BRM fusion protein (Homo sapiens, UniProt P51531); assay: HiBiT-BRM cell-based degradation assay (Nano-Glo HiBiT Lytic Detection); details: stable HeLa cell line expressing HiBiT-BRM, 24 h incubation; for BRM HiBit Degradation Maximum (%): top dose 30 μM; for DC50: read-out: BRM HiBit Degradation IC50
T1 construct: expressed in transfected cells
T1 sequence (P51531 whole entry, the tested form may be a part): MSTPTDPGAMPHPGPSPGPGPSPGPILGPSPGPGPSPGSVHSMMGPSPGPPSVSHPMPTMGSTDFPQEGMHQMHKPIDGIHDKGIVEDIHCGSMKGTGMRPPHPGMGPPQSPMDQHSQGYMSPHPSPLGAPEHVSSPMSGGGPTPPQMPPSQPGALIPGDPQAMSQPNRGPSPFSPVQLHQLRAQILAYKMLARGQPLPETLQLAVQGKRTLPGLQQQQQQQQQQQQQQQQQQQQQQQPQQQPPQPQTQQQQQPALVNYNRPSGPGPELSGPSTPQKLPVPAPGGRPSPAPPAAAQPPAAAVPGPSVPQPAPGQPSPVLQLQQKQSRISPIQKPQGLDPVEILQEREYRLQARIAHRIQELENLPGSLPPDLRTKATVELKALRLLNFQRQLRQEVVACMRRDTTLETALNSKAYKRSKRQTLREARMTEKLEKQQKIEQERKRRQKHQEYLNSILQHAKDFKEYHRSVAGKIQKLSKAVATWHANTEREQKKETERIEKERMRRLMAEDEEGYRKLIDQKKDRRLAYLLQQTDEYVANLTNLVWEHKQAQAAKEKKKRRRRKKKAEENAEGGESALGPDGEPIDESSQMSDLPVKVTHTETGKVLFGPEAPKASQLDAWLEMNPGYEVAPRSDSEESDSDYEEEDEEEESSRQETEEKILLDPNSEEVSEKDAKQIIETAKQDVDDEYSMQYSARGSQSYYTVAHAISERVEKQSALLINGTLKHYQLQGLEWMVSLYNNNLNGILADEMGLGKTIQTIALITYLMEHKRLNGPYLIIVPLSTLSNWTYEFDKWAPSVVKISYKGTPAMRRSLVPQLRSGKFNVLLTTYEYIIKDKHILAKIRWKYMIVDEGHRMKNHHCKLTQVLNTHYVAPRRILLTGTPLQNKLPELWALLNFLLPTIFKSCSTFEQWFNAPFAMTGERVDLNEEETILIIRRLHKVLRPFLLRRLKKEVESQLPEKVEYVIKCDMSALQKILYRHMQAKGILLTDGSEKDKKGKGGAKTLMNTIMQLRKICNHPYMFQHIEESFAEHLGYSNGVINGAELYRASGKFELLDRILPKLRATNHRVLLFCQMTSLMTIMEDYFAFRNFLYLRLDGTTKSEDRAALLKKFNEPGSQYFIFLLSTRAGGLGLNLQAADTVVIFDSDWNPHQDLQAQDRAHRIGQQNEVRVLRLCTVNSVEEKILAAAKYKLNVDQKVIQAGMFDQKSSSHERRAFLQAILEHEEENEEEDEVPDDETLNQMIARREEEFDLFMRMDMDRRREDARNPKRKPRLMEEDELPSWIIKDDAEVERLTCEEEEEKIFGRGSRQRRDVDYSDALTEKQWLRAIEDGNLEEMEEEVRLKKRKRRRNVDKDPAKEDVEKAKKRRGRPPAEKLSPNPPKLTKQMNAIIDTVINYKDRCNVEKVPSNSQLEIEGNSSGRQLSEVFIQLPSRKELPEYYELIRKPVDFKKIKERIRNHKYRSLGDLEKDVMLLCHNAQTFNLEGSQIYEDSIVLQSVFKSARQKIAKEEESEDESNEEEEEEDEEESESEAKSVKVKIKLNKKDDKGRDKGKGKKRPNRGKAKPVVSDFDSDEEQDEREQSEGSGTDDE
Summary of the method: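 Luminescence from reconstituted NanoBiT luciferase in lysed HeLa HiBiT-BRM cells served as the measure of remaining BRM after 24 h treatment. Compounds were tested from 30 μM final downward in 3-fold steps. DMSO and 2 μM of a standard BRM/BRG1 degrader defined the scale limits.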

[2] = target: T2, HiBit-BRG1 fusion protein (Homo sapiens, UniProt P51532); assay: HiBiT-BRG1 cell-based degradation assay (Nano-Glo HiBiT Lytic Detection); details: stable HeLa cell line expressing HiBit-BRG1 and LgBit, 24 h incubation; for Dmax: top dose 30 μM, read-out: BRG1 HiBit Degradation Maximum (%); for DC50: read-out: BRMG1 HiBit Degradation IC50
T2 construct: expressed in transfected cells
T2 sequence (P51532 whole entry, the tested form may be a part): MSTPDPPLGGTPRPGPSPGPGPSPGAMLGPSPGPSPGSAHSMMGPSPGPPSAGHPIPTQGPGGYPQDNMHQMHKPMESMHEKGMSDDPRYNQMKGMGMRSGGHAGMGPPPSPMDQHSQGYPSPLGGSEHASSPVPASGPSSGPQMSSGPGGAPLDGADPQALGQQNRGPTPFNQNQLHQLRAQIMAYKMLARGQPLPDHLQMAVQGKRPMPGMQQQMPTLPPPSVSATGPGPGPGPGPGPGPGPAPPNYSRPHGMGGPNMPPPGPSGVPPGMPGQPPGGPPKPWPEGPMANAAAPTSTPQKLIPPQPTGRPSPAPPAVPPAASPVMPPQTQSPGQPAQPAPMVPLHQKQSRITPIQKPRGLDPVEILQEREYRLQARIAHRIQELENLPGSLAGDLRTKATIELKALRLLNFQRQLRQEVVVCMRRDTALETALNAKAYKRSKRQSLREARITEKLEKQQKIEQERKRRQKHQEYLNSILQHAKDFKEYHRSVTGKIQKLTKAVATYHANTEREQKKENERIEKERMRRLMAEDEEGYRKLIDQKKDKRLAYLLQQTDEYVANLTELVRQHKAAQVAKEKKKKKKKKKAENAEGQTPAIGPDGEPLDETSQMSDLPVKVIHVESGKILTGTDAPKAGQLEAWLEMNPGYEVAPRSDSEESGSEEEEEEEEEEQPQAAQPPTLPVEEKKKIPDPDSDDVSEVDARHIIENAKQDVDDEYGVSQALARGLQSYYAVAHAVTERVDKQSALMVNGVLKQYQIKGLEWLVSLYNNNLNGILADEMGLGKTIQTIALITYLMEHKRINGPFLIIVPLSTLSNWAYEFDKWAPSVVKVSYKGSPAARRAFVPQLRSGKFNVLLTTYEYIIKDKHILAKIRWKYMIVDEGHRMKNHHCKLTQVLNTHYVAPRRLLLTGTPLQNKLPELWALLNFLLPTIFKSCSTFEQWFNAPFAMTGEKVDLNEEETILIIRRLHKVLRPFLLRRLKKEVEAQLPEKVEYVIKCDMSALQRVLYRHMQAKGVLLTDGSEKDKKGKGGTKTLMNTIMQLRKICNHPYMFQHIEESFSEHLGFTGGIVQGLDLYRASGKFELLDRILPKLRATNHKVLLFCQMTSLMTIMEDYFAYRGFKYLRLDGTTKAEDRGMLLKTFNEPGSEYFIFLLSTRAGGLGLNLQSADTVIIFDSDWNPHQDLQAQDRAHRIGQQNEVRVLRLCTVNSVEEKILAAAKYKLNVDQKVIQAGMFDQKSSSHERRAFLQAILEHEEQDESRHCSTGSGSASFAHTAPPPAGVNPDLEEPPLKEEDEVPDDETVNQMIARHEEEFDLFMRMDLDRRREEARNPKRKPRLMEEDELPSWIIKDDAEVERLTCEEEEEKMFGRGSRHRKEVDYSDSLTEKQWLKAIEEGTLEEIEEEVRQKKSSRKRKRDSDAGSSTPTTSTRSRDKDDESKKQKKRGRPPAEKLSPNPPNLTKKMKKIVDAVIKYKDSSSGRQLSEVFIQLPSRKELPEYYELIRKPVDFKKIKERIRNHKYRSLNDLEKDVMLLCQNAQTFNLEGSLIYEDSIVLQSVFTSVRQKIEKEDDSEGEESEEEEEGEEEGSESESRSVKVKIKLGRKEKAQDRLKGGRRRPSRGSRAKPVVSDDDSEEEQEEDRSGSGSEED
Summary of the method: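 HeLa cells stably expressing HiBiT-BRG1 and LgBiT treated 24 h with 10-point 3-fold dilutions (top 30 μM, duplicate). Luminescence read after Nano-Glo HiBiT lytic reagent; % degradation relative to DMSO (high control) and 2 μM reference BRM/BRG1 degrader (low control).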

SMILES	DC50 [1] [nM]	Dmax [2] [%]	DC50 [2] [nM]	BRM HiBit Degradation Maximum (%) [1]
Cc1ncsc1-c1ccc([C@H](C)NC(=O)[C@@H]2C[C@@H](O)CN2C(=O)[C@@H](c2cc(N3CCC(CN4CCc5sc6nnc(-c7ccccc7O)cc6c5C4)CC3)no2)C(C)C)cc1 [Compound 92, (2S,4R)-4-hydroxy-1-((R)-2-(3-(4-((3-(2-hydroxyphenyl)-7,8-dihydropyrido[3′,4′:4,5]thieno[2,3-c]pyridazin-6(5H)-yl)methyl)piperidin-1-yl)isoxazol-5-yl)-3-methylbutanoyl)-N-((S)-1-(4-(4-methylthiazol-5-yl)phenyl)ethyl)pyrrolidine-2-carboxamide]	≥ 1000	≥ 50	≥ 1000	C (“C” indicates maximum degradation < 50%)
Cc1ncsc1-c1ccc([C@H](C)NC(=O)[C@@H]2C[C@@H](O)CN2C(=O)[C@@H](c2cc(N3CCC(CN4CCC(c5sc6nnc(-c7ccccc7O)cc6c5C)CC4)CC3)no2)C(C)C)cc1 [Compound 94, (2S,4R)-4-hydroxy-1-((R)-2-(3-(4-((4-(3-(2-hydroxyphenyl)-5-methylthieno[2,3-c]pyridazin-6-yl)piperidin-1-yl)methyl)piperidin-1-yl)isoxazol-5-yl)-3-methylbutanoyl)-N-((S)-1-(4-(4-methylthiazol-5-yl)phenyl)ethyl)pyrrolidine-2-carboxamide]	< 10	< 50	≥ 1000	A (“A” indicates maximum degradation ≥ 75%)
Cc1ncsc1-c1ccc([C@H](C)NC(=O)[C@@H]2C[C@@H](O)CN2C(=O)[C@@H](c2cc(N3CCC(N4CCC(c5sc6nnc(-c7ccccc7O)cc6c5C)CC4)CC3)no2)C(C)C)cc1 [Compound 96, (2S,4R)-4-hydroxy-1-((R)-2-(3-(4-(3-(2-hydroxyphenyl)-5-methylthieno[2,3-c]pyridazin-6-yl)-[1,4'-bipiperidin]-1'-yl)isoxazol-5-yl)-3-methylbutanoyl)-N-((S)-1-(4-(4-methylthiazol-5-yl)phenyl)ethyl)pyrrolidine-2-carboxamide]	< 10	< 50	≥ 1000	A (“A” indicates maximum degradation ≥ 75%)
Cc1ncsc1-c1ccc([C@H](C)NC(=O)[C@@H]2C[C@@H](O)CN2C(=O)[C@@H](c2cc(OCCN3CCC(c4cc5nnc(-c6ccccc6O)cc5s4)CC3)no2)C(C)C)cc1 [Compound 97, (2S,4R)-4-hydroxy-1-((R)-2-(3-(2-(4-(3-(2-hydroxyphenyl)thieno[3,2-c]pyridazin-6-yl)piperidin-1-yl)ethoxy)isoxazol-5-yl)-3-methylbutanoyl)-N-((S)-1-(4-(4-methylthiazol-5-yl)phenyl)ethyl)pyrrolidine-2-carboxamide]	< 10	< 50	≥ 1000	A (“A” indicates maximum degradation ≥ 75%)
Cc1ncsc1-c1ccc([C@H](C)NC(=O)[C@@H]2C[C@@H](O)CN2C(=O)[C@@H](c2cc(N3CCC(C(=O)N4CC(c5cc6nnc(-c7ccccc7O)cc6s5)C4)CC3)no2)C(C)C)cc1 [Compound 99, (2S,4R)-4-hydroxy-1-((R)-2-(3-(4-(3-(3-(2-hydroxyphenyl)thieno[3,2-c]pyridazin-6-yl)azetidine-1-carbonyl)piperidin-1-yl)isoxazol-5-yl)-3-methylbutanoyl)-N-((S)-1-(4-(4-methylthiazol-5-yl)phenyl)ethyl)pyrrolidine-2-carboxamide]	≥ 10	< 50	≥ 1000	A (“A” indicates maximum degradation ≥ 75%)

Further lines, with some results ahead:

DC50 [1] [nM]	Dmax [2] [%]	DC50 [2] [nM]	SMILES	BRM HiBit Degradation Maximum (%) [1]
≥ 1000	< 50	≥ 1000	Cc1ncsc1-c1ccc([C@H](C)NC(=O)[C@@H]2C[C@@H](O)CN2C(=O)[C@@H](c2cc(OCC(=O)N3CCc4sc5nnc(-c6ccccc6O)cc5c4C3)no2)C(C)C)cc1 [Compound 91, (2S,4R)-4-hydroxy-1-((R)-2-(3-(2-(3-(2-hydroxyphenyl)-7,8-dihydropyrido[3′,4′:4, 5]thieno[2,3-c]pyridazin-6(5H)-yl)-2-oxoethoxy)isoxazol-5-yl)-3-methylbutanoyl)-N-((S)-1-(4-(4-methylthiazol-5-yl)phenyl)ethyl)pyrrolidine-2-carboxamide]	C (“C” indicates maximum degradation < 50%)
≥ 10	< 50	≥ 1000	Cc1ncsc1-c1ccc([C@H](C)NC(=O)[C@@H]2C[C@@H](O)CN2C(=O)[C@@H](c2cc(OCC(=O)N3CCC(c4sc5nnc(-c6ccccc6O)cc5c4C)CC3)no2)C(C)C)cc1 [Compound 93, (2S,4R)-4-hydroxy-1-((R)-2-(3-(2-(4-(3-(2-hydroxyphenyl)-5-methylthieno[2,3-c]pyridazin-6-yl)piperidin-1-yl)-2-oxoethoxy)isoxazol-5-yl)-3-methylbutanoyl)-N-((S)-1-(4-(4-methylthiazol-5-yl)phenyl)ethyl)pyrrolidine-2-carboxamide]	A (“A” indicates maximum degradation ≥ 75%)
< 10	< 50	≥ 1000	Cc1ncsc1-c1ccc([C@H](C)NC(=O)[C@@H]2C[C@@H](O)CN2C(=O)[C@@H](c2cc(OCCCN3CCC(c4sc5nnc(-c6ccccc6O)cc5c4C)CC3)no2)C(C)C)cc1 [Compound 95, (2S,4R)-4-hydroxy-1-((R)-2-(3-(3-(4-(3-(2-hydroxyphenyl)-5-methylthieno[2,3-c]pyridazin-6-yl)piperidin-1-yl)propoxy)isoxazol-5-yl)-3-methylbutanoyl)-N-((S)-1-(4-(4-methylthiazol-5-yl)phenyl)ethyl)pyrrolidine-2-carboxamide]	A (“A” indicates maximum degradation ≥ 75%)
< 10	≥ 50	≥ 1000	Cc1ncsc1-c1ccc([C@H](C)NC(=O)[C@@H]2C[C@@H](O)CN2C(=O)[C@@H](c2cc(N3CCC(C(=O)N4CCC(c5sc6nnc(-c7ccccc7O)cc6c5C)CC4)CC3)no2)C(C)C)cc1 [Compound 98, (2S,4R)-4-hydroxy-1-((R)-2-(3-(4-(4-(3-(2-hydroxyphenyl)-5-methylthieno[2,3-c]pyridazin-6-yl)piperidine-1-carbonyl)piperidin-1-yl)isoxazol-5-yl)-3-methylbutanoyl)-N-((S)-1-(4-(4-methylthiazol-5-yl)phenyl)ethyl)pyrrolidine-2-carboxamide]	A (“A” indicates maximum degradation ≥ 75%)
≥ 10	< 50	≥ 1000	Cc1ncsc1-c1ccc([C@H](C)NC(=O)[C@@H]2C[C@@H](O)CN2C(=O)[C@@H](c2cc(OCCN3CCC(N4CC(c5sc6nnc(-c7ccccc7O)cc6c5C)C4)CC3)no2)C(C)C)cc1 [Compound 100, (2S,4R)-4-hydroxy-1-((R)-2-(3-(2-(4-(3-(3-(2-hydroxyphenyl)-5-methylthieno[2,3-c]pyridazin-6-yl)azetidin-1-yl)piperidin-1-yl)ethoxy)isoxazol-5-yl)-3-methylbutanoyl)-N-((S)-1-(4-(4-methylthiazol-5-yl)phenyl)ethyl)pyrrolidine-2-carboxamide]	A (“A” indicates maximum degradation ≥ 75%)
